In ChEMBL document CHEMBL3751695, “Cationic lipid-conjugated hydrocortisone as selective antitumor agent” (Eur J Med Chem, 2016):
Activity calls are given as the source filed them. No cut-off for these calls is given here.

Assays:
RAW264.7 [1] = assay: Induction of apoptosis in mouse RAW264.7 cells assessed as necrotic cells at 20 uM after 24 hrs by annexin-V-FITC/propidium iodide staining based flow cytometry (reference value: 1.81%); format: cell-based; conditions: raw264.7, 24 h
[2] = Induction of apoptosis in mouse NIH/3T3 cells assessed as viable cells at 20 uM after 24 hrs by annexin-V-FITC/propidium iodide staining based flow cytometry (reference value: 99.06 %); format: cell-based, NIH3T3; conditions: read-out: Activity
[3] = Induction of apoptosis in mouse NIH/3T3 cells assessed as early apoptotic cells at 20 uM after 24 hrs by annexin-V-FITC/propidium iodide staining based flow cytometry (reference value: 0.43 %); format: cell-based; conditions: nih3t3, 24 h
[4] = Induction of apoptosis in mouse NIH/3T3 cells assessed as late apoptotic cells at 20 uM after 24 hrs by annexin-V-FITC/propidium iodide staining based flow cytometry (reference value: 0.28 %); format: cell-based; conditions: nih3t3, 24 h
B16-F10 [5] = assay: Induction of apoptosis in mouse B16F10 cells assessed as increased Bax expression at 20 uM after 36 hrs by western blot analysis; format: functional, cell-based
B16-F10 [6] = assay: Induction of apoptosis in mouse B16F10 cells assessed as increase in cleaved caspase 3 level at 20 uM after 36 hrs by western blot analysis; format: functional, cell-based
B16-F10 [7] = assay: Induction of apoptosis in mouse B16F10 cells assessed as increase in cytochrome C level at 10 uM after 36 hrs by western blot analysis; format: functional, cell-based
[8] = Cell cycle arrest in mouse B16F10 cells assessed as accumulation at subG0/G1 phase at 20 uM after 24 hrs by propidium iodide staining based flow cytometry (reference value: 40.7 %); format: functional; conditions: B16-F10
[9] = Cell cycle arrest in mouse B16F10 cells assessed as accumulation at G1 phase at 20 uM after 24 hrs by propidium iodide staining based flow cytometry (reference value: 38.8 %); format: functional; conditions: B16-F10
[10] = Cell cycle arrest in mouse B16F10 cells assessed as accumulation at S phase at 20 uM after 24 hrs by propidium iodide staining based flow cytometry (reference value: 5.4 %); format: functional; conditions: B16-F10
[11] = Cell cycle arrest in mouse B16F10 cells assessed as increase in cyclin B1 level at 20 uM by flow cytometric analysis; format: functional, cell-based; conditions: B16-F10
B16-F10 [12] = assay: Antitumor activity against mouse B16F10 cells xenografted in C57BL/J mouse assessed as inhibition of tumor growth at 10 mg/kg, ip; format: functional, organism-based
Mus musculus = assay: Toxicity in C57BL/J mouse xenografted with mouse B16F10 cells assessed as animal survival at 10 mg/kg, ip measured upto 45 days post tumor inoculation; format: organism-based, B16-F10; conditions: in vivo, 1080 h
B16-F10 [13] = assay: Antitumor activity in mouse B16F10 cells xenografted in C57BL/J mouse assessed as increase of apoptotic protein Bax level in tumor lysates at 10 mg/kg, ip by western blot analysis; format: functional, organism-based; conditions: Neoplasm, Lysate
Gallus gallus = organism: Gallus gallus; assay: Antiangiogenic activity in chicken embryo assessed as inhibition of neovascularization at 40 uM after 4 hrs by microscopic analysis; format: functional, tissue-based
B16-F10 [14] = assay: Antitumor activity in mouse B16F10 cells xenografted in C57BL/J mouse assessed as decrease in VEGFR2 expression in tumor at 10 mg/kg, ip by immunohistochemical analysis; format: functional, organism-based
B16-F10 [15] = assay: Induction of apoptosis in mouse B16F10 cells assessed as increase in ratio of Bax/Bcl2 level at 10 uM after 36 hrs by western blot analysis (reference value: 0.2); format: functional
B16-F10 [16] = assay: Induction of apoptosis in mouse B16F10 cells assessed as increase in cytochrome C level at 20 uM after 36 hrs by western blot analysis; format: functional, cell-based
B16-F10 [17] = assay: Antitumor activity in mouse B16F10 cells xenografted in C57BL/J mouse assessed as increase of apoptotic protein cleaved caspase 7 level in tumor lysates at 10 mg/kg, ip by western blot analysis; format: functional, organism-based; conditions: Neoplasm, Lysate
B16-F10 [18] = assay: Antitumor activity in mouse B16F10 cells xenografted in C57BL/J mouse assessed as increase of apoptotic protein p53 level in tumor lysates at 10 mg/kg, ip by western blot analysis; format: functional, organism-based; conditions: Neoplasm, Lysate
A549 [19] = assay: Cytotoxicity against human A549 cells after 72 hrs by MTT assay; format: functional, cell-based; conditions: A549, 72 h
MCF7 = assay: Cytotoxicity against human MCF7 cells after 72 hrs by MTT assay; format: functional, cell-based; conditions: MCF7, 72 h
HeLa = assay: Cytotoxicity against human HeLa cells after 72 hrs by MTT assay; format: functional, cell-based
[20] = Cytotoxicity against mouse NIH/3T3 cells after 72 hrs by MTT assay; format: cell-based; conditions: NIH3T3, 72 h
[21] = Cytotoxicity against mouse B16F10 cells at 10 and 20 uM after 72 hrs by MTT assay; format: functional, B16-F10
A549 [22] = assay: Induction of apoptosis in human A549 cells assessed as early apoptotic cells at 20 uM after 24 hrs by annexin-V-FITC/propidium iodide staining based flow cytometry (reference value: 1.41 %); format: functional
A549 [23] = assay: Induction of apoptosis in human A549 cells assessed as late apoptotic cells at 20 uM after 24 hrs by annexin-V-FITC/propidium iodide staining based flow cytometry (reference value: 7.40 %); format: functional
A549 [24] = assay: Induction of apoptosis in human A549 cells assessed as necrotic cells at 20 uM after 24 hrs by annexin-V-FITC/propidium iodide staining based flow cytometry (reference value: 3.23 %); format: functional
B16-F10 [25] = assay: Induction of apoptosis in mouse B16F10 cells assessed as viable cells at 20 uM after 24 hrs by annexin-V-FITC/propidium iodide staining based flow cytometry (reference value: 93.66 %); format: functional; conditions: B16-F10, 24 h, read-out: Activity
B16-F10 [26] = assay: Induction of apoptosis in mouse B16F10 cells assessed as early apoptotic cells at 20 uM after 24 hrs by annexin-V-FITC/propidium iodide staining based flow cytometry (reference value: 0.46 %); format: functional
B16-F10 [27] = assay: Induction of apoptosis in mouse B16F10 cells assessed as necrotic cells at 20 uM after 24 hrs by annexin-V-FITC/propidium iodide staining based flow cytometry (reference value: 1.41 %); format: functional
MDA-MB-231 [28] = assay: Induction of apoptosis in human MDA-MB-231 cells assessed as viable cells at 20 uM after 24 hrs by annexin-V-FITC/propidium iodide staining based flow cytometry (reference value: 90.77 %); format: functional; conditions: MDA-MB-231, 24 h, read-out: Activity
MDA-MB-231 [29] = assay: Induction of apoptosis in human MDA-MB-231 cells assessed as early apoptotic cells at 20 uM after 24 hrs by annexin-V-FITC/propidium iodide staining based flow cytometry (reference value: 0.58 %); format: functional
MDA-MB-231 [30] = assay: Induction of apoptosis in human MDA-MB-231 cells assessed as late apoptotic cells at 20 uM after 24 hrs by annexin-V-FITC/propidium iodide staining based flow cytometry (reference value: 3.25 %); format: functional
MDA-MB-231 [31] = assay: Induction of apoptosis in human MDA-MB-231 cells assessed as necrotic cells at 20 uM after 24 hrs by annexin-V-FITC/propidium iodide staining based flow cytometry (reference value: 5.40 %); format: functional
RAW264.7 [32] = assay: Induction of apoptosis in mouse RAW264.7 cells assessed as early apoptotic cells at 20 uM after 24 hrs by annexin-V-FITC/propidium iodide staining based flow cytometry (reference value: 3.44 %); format: cell-based; conditions: raw264.7, 24 h

Compound `CCCCCCCCCCCCCCCC[N+](C)(CCCCCCCCCCCCCCCC)CCNC(=O)[C@@]1(O)CC[C@H]2[C@@H]3CCC4=CC(=O)CC[C@]4(C)[C@H]3[C@@H](O)C[C@@]21C.[Cl-]` has an Activity (RAW264.7 [1]) of 1.36%, a viability at 24 h, 20 µM [2] of 90.4% and an Activity [3] of 2.08%. The Activity [4] was 0.55%, the Activity (B16-F10 [5]) was “Active” and the Activity (B16-F10 [6]) was “Active”. For the same compound, the Activity (B16-F10 [7]) was “Active”, the Activity [8] was 15.1% and the Activity [9] was 33.8%. The Activity [10] was 9.6%, the Activity [11] was “Active” and the inhibition (B16-F10 [12]) was “Active”. The Activity (Mus musculus) was “Non-toxic”, the Activity (B16-F10 [13]) was “Active” and the inhibition (Gallus gallus) was “Active”. The inhibition (B16-F10 [14]) was “Active”, the Ratio (B16-F10 [15]) was 0.4 and the Activity (B16-F10 [16]) was “Active”. For the same compound, the Activity (B16-F10 [17]) was “Active”, the Activity (B16-F10 [18]) was “Active” and the IC50 (A549 [19]) was 2.5 µM. The IC50 (MCF7) was 3.7 µM, the IC50 (HeLa) was 5.2 µM and the IC50 [20] was 20 µM. The Activity [21] was over 90%, the Activity (A549 [22]) was 7.53% and the Activity (A549 [23]) was 66.05%. The Activity (A549 [24]) was 1.36%, the viability at 20 µM (B16-F10 [25]) was 57.4% and the Activity (B16-F10 [26]) was 1.67%. For the same compound, the Activity (B16-F10 [27]) was 8.52%, the viability at 20 µM (MDA-MB-231 [28]) was 50.7% and the Activity (MDA-MB-231 [29]) was 4.62%. For the same compound, the Activity (MDA-MB-231 [30]) was 40.23%, the Activity (MDA-MB-231 [31]) was 4.45% and the Activity (RAW264.7 [32]) was 1.63%.
